Reference: patent US20230348376A1 (TEIJIN PHARMA LIMITED, priority 2020, published 2023)
Read-outs that look alike come from different tables or passages of the source.

Target: T1, human VDR (Homo sapiens, UniProt P11473)
T1 sequence (P11473 1-427): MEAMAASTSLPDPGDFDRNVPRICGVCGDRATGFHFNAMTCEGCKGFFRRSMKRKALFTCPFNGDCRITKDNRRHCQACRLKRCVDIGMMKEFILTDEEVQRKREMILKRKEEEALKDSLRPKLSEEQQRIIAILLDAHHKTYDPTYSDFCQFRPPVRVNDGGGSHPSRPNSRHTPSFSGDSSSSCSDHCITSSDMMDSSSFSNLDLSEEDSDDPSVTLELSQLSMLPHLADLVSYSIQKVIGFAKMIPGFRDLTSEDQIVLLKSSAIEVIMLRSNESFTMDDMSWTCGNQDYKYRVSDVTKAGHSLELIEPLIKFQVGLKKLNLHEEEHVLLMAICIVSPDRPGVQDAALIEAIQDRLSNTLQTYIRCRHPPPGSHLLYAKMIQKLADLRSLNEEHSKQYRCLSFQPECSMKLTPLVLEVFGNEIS
T1 sequence (P19793 1-462 partner): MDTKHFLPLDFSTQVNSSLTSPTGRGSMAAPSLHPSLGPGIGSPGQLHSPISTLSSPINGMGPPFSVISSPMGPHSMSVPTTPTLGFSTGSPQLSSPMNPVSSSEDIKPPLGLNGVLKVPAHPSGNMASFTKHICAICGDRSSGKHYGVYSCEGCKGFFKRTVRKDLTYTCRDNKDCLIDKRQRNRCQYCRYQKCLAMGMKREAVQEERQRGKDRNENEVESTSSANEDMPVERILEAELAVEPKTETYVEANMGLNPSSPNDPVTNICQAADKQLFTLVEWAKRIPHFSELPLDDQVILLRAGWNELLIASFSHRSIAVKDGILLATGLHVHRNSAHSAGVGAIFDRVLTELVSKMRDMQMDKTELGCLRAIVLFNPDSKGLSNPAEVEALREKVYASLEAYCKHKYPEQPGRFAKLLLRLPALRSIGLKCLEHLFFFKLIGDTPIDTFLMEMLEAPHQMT
Test: Evaluation of VDR transcription activity in human osteoblasts (HOS cells), luciferase reporter
Conditions: HOS cells transfected with human VDR, human RXRα and DR3 luciferase reporter, 21 hours

[1] = Activity (EC50, VDR transcription activity)

SMILES | EC50 [1] [nM] | EC50 (read-out: Activity (EC50, VDR transcription activity)) [nM]
C[C@@H](CN1CC[C@H](C(C)(F)F)C1)[C@H]1CC[C@H]2/C(=C/C=C3CC(O)C[C@H](O)C3)CCC[C@]12C (stereo in doubt) [Compound B101, (1R,3S)-5-(2-((1R,3aS,7aR,E)-1-((R)-1-((S)-3-(1,1-difluoroethyl)pyrrolidin-1-yl)propan-2-yl)-7a-methyloctahydro-4H-inden-4-ylidene)ethylidene)cyclohexane-1,3-diol] | 10 to 100 | 
C[C@H](CN1CCC[C@H](CC(F)F)C1)[C@H]1CC[C@H]2/C(=C/C=C3C[C@@H](O)C[C@H](O)C3)CCC[C@]12C [Compound C051, (1R,3R)-5-(2-((1R,3aS,7aR,E)-1-((S)-1-((R)-3-(2,2-difluoroethyl)piperidin-1-yl)propan-2-yl)-7a-methyloctahydro-4H-inden-4-ylidene)ethylidene)cyclohexane-1,3-diol] | 100 to 1000 | 
C=C1[C@H](O)CC(=C/C=C2\CCC[C@]3(C)[C@@H]([C@@H](C)CN4CCC(C(F)(F)F)CC4)CC[C@@H]23)C[C@H]1O [Compound C060, (1R,3R)-5-(2-((1R,3aS,7aR,E)-7a-methyl-1-((R)-1-(4-(trifluoromethyl)piperidin-1-yl)propan-2-yl)octahydro-4H-inden-4-ylidene)ethylidene)-2-methylenecyclohexane-1,3-diol] | 1 to 10 | 
C=C1[C@H](O)CC(=C/C=C2\CCC[C@]3(C)[C@@H]([C@H](C)CCN4CCO[C@@H](C(F)F)C4)CC[C@@H]23)C[C@H]1O [Compound D036, (1R,3R)-5-(2-((1R,3aS,7aR,E)-1-((R)-4-((R)-2-(difluoromethyl)morpholino)butan-2-yl)-7a-methyloctahydro-4H-inden-4-ylidene)ethylidene)-2-methylenecyclohexane-1,3-diol] | 1 to 10 | 
C=C1[C@H](O)CC(=C/C=C2\CCC[C@]3(C)[C@@H]([C@H](C)CN4CC(O)(C(F)(F)F)C4)CC[C@@H]23)C[C@H]1O [Compound A011, (1R,3R)-5-(2-((1R,3aS,7aR,E)-1-((S)-1-(3-hydroxy-3-(trifluoromethyl)azetidin-1-yl)propan-2-yl)-7a-methyloctahydro-4H-inden-4-ylidene)ethylidene)-2-methylenecyclohexane-1,3-diol] | < 1 | 
C=C1/C(=C\C=C2/CCC[C@]3(C)[C@@H]([C@H](C)CN4CC[C@H](CC(F)F)C4)CC[C@@H]23)C[C@@H](O)[C@H](C)[C@@H]1O [Compound B038, (1R,2S,3S,Z)-5-(2-((1R,3aS,7aR,E)-1-((S)-1-((R)-3-(2,2-difluoroethyl)pyrrolidin-1-yl)propan-2-yl)-7a-methyloctahydro-4H-inden-4-ylidene)ethylidene)-2-methyl-4-methylenecyclohexane-1,3-diol] | 10 to 100 | 
C=C1/C(=C\C=C2/CCC[C@]3(C)[C@@H]([C@H](C)CN4CC[C@@H](CC(F)F)C4)CC[C@@H]23)C[C@@H](O)[C@H](C)[C@@H]1O [Compound B039, (1R,2S,3S,Z)-5-(2-((1R,3aS,7aR,E)-1-((S)-1-((S)-3-(2,2-difluoroethyl)pyrrolidin-1-yl)propan-2-yl)-7a-methyloctahydro-4H-inden-4-ylidene)ethylidene)-2-methyl-4-methylenecyclohexane-1,3-diol] | 1 to 10 | 
C=C1[C@H](O)CC(=C/C=C2\CCC[C@]3(C)[C@@H]([C@@H](C)CN4CCC(O)(C(F)F)CC4)CC[C@@H]23)C[C@H]1O [Compound C026, (1R,3R)-5-(2-((1R,3aS,7aR,E)-1-((R)-1-(4-(difluoromethyl)-4-hydroxypiperidin-1-yl)propan-2-yl)-7a-methyloctahydro-4H-inden-4-ylidene)ethylidene)-2-methylenecyclohexane-1,3-diol] | 1 to 10 | 
C=C1[C@H](O)CC(=C/C=C2\CCC[C@]3(C)[C@@H]([C@H](C)CN4CC[C@@H](C(C)(F)F)C4)CC[C@@H]23)C[C@H]1O [Compound B035, (1R,3R)-5-(2-((1R,3aS,7aR,E)-1-((S)-1-((R)-3-(1,1-difluoroethyl)pyrrolidin-1-yl)propan-2-yl)-7a-methyloctahydro-4H-inden-4-ylidene)ethylidene)-2-methylenecyclohexane-1,3-diol] | 1 to 10 | 
C[C@@H](CN1CC[C@@H](C(C)(F)F)C1)[C@H]1CC[C@H]2/C(=C/C=C3CC(O)C[C@H](O)C3)CCC[C@]12C (stereo in doubt) [Compound B102, (1R,3S)-5-(2-((1R,3aS,7aR,E)-1-((R)-1-((R)-3-(1,1-difluoroethyl)pyrrolidin-1-yl)propan-2-yl)-7a-methyloctahydro-4H-inden-4-ylidene)ethylidene)cyclohexane-1,3-diol] | 1 to 10 | 
C=C1/C(=C\C=C2/CCC[C@]3(C)[C@@H]([C@H](C)CN4CCOC(C(F)(F)F)C4)CC[C@@H]23)C[C@@H](O)[C@H](C)[C@@H]1O (single isomer, unassigned) [Compound D009a] | 1 to 10 | 

Now from value to compound:

EC50 [1] [nM] | EC50 (read-out: Activity (EC50, VDR transcription activity)) [nM] | SMILES
< 1 |  | C=C1/C(=C\C=C2/CCC[C@]3(C)[C@@H]([C@H](C)CN4CCC(O)(C(F)(F)F)C4)CC[C@@H]23)C[C@@H](O)C[C@@H]1O (single isomer, unassigned) [Compound B044a]
< 1 |  | C=C1/C(=C\C=C2/CCC[C@]3(C)[C@@H]([C@H](C)CN4CCCC(O)(C(F)(F)F)C4)CC[C@@H]23)C[C@@H](O)[C@H](C)[C@@H]1O (single isomer, unassigned) [Compound C031a]
1 to 10 |  | C=C1/C(=C\C=C2/CCC[C@]3(C)[C@@H]([C@H](C)CN4CCCC(C)(OC)C4)CC[C@@H]23)C[C@@H](O)C[C@@H]1O (single isomer, unassigned) [Compound C043a]
< 1 |  | C=C1[C@H](O)CC(=C/C=C2\CCC[C@]3(C)[C@@H]([C@H](C)CN4CCC(O)(C(F)(F)F)C4)CC[C@@H]23)C[C@H]1O (single isomer, unassigned) [Compound B046a]
1 to 10 |  | C=C1/C(=C\C=C2/CCC[C@]3(C)[C@@H]([C@@H](C)CN4CCC(C(F)(F)F)CC4)CC[C@@H]23)C[C@@H](O)C[C@@H]1O [Compound C011, (1R,3S,Z)-5-(2-((1R,3aS,7aR,E)-7a-methyl-1-((R)-1-(4-(trifluoromethyl)piperidin-1-yl)propan-2-yl)octahydro-4H-inden-4-ylidene)ethylidene)-4-methylenecyclohexane-1,3-diol]
1 to 10 |  | C=C1[C@H](O)CC(=C/C=C2\CCC[C@]3(C)[C@@H]([C@H](C)CN4CC[C@@H](C)C4)CC[C@@H]23)C[C@H]1O [Compound B003, (1R,3R)-5-(2-((1R,3aS,7aR,E)-7a-methyl-1-((S)-1-((R)-3-methylpyrrolidin-1-yl)propan-2-yl)octahydro-4H-inden-4-ylidene)ethylidene)-2-methylenecyclohexane-1,3-diol]
< 1 |  | C=C1[C@H](O)CC(=C/C=C2\CCC[C@]3(C)[C@@H]([C@H](C)CN4CCC[C@](C)(O)C4)CC[C@@H]23)C[C@H]1O [Compound C041, (1R,3R)-5-(2-((1R,3aS,7aR,E)-1-((S)-1-((S)-3-hydroxy-3-methylpiperidin-1-yl)propan-2-yl)-7a-methyloctahydro-4H-inden-4-ylidene)ethylidene)-2-methylenecyclohexane-1,3-diol]
1 to 10 |  | C=C1/C(=C\C=C2/CCC[C@]3(C)[C@@H]([C@@H](C)CN4CCC(O)(C(F)F)CC4)CC[C@@H]23)C[C@@H](O)C[C@@H]1O [Compound C024, (1R,3S,Z)-5-(2-((1R,3aS,7aR,E)-1-((R)-1-(4-(difluoromethyl)-4-hydroxypiperidin-1-yl)propan-2-yl)-7a-methyloctahydro-4H-inden-4-ylidene)ethylidene)-4-methylenecyclohexane-1,3-diol]
10 to 100 |  | C=C1/C(=C\C=C2/CCC[C@]3(C)[C@@H]([C@@H](C)CN4CCC(F)CC4)CC[C@@H]23)C[C@@H](O)C[C@@H]1O [Compound C058]
10 to 100 |  | C=C1[C@H](O)CC(=C/C=C2\CCC[C@]3(C)[C@@H]([C@H](C)CN4CCCC(C)(OC)C4)CC[C@@H]23)C[C@H]1O (single isomer, unassigned) [Compound C047b]
10 to 100 |  | C=C1/C(=C\C=C2/CCC[C@]3(C)[C@@H]([C@H](C)CN4CC[C@@H](CCC(F)F)C4)CC[C@@H]23)C[C@@H](O)C[C@@H]1O [Compound B060, (1R,3S,Z)-5-(2-((1R,3aS,7aR,E)-1-((S)-1-((R)-3-(3,3-difluoropropyl)pyrrolidin-1-yl)propan-2-yl)-7a-methyloctahydro-4H-inden-4-ylidene)ethylidene)-4-methylenecyclohexane-1,3-diol]
 | < 1 | C=C1[C@H](O)CC(=C/C=C2\CCC[C@]3(C)[C@@H]([C@H](C)CN4CCC(O)(C(F)(F)F)C4)CC[C@@H]23)C[C@H]1O (single isomer, unassigned) [Compound B046b]
